Experimental data from ChEMBL document CHEMBL5344473, “Inhibition of N-type calcium channels by phenoxyaniline and sulfonamide analogues” (RSC Med Chem, 2024).

Tests used:
[1] = molecular target: Voltage-dependent N-type calcium channel subunit alpha-1B (Homo sapiens, UniProt Q00975); test: Inhibition of Cav2.2 in human SH-SY5Y cells assessed as inhibition of calcium influx measured for 300 secs in presence of Cav1 blocker, nifedipine by FLIPR assay; assay type: cell-based
in vitro = settings: Sprague-Dawley, rat, plasma
[2] = Cytotoxicity against African green monkey COS7 cells assessed as reduction in cell viability measured after 20 hrs by CellTiter-Blue reagent based fluorescence analysis; settings: chlorocebus aethiops
[3] = molecular target: Voltage-dependent T-type calcium channel subunit alpha-1H (Homo sapiens, UniProt O95180); test: Inhibition of human recombinant Cav3.2 alpha1 subunit expressed in HEK293T cells assessed as inhibition of calcium influx measured for 300 secs by FLIPR assay; assay type: cell-based
Sequence of Voltage-dependent T-type calcium channel subunit alpha-1H (O95180 whole entry): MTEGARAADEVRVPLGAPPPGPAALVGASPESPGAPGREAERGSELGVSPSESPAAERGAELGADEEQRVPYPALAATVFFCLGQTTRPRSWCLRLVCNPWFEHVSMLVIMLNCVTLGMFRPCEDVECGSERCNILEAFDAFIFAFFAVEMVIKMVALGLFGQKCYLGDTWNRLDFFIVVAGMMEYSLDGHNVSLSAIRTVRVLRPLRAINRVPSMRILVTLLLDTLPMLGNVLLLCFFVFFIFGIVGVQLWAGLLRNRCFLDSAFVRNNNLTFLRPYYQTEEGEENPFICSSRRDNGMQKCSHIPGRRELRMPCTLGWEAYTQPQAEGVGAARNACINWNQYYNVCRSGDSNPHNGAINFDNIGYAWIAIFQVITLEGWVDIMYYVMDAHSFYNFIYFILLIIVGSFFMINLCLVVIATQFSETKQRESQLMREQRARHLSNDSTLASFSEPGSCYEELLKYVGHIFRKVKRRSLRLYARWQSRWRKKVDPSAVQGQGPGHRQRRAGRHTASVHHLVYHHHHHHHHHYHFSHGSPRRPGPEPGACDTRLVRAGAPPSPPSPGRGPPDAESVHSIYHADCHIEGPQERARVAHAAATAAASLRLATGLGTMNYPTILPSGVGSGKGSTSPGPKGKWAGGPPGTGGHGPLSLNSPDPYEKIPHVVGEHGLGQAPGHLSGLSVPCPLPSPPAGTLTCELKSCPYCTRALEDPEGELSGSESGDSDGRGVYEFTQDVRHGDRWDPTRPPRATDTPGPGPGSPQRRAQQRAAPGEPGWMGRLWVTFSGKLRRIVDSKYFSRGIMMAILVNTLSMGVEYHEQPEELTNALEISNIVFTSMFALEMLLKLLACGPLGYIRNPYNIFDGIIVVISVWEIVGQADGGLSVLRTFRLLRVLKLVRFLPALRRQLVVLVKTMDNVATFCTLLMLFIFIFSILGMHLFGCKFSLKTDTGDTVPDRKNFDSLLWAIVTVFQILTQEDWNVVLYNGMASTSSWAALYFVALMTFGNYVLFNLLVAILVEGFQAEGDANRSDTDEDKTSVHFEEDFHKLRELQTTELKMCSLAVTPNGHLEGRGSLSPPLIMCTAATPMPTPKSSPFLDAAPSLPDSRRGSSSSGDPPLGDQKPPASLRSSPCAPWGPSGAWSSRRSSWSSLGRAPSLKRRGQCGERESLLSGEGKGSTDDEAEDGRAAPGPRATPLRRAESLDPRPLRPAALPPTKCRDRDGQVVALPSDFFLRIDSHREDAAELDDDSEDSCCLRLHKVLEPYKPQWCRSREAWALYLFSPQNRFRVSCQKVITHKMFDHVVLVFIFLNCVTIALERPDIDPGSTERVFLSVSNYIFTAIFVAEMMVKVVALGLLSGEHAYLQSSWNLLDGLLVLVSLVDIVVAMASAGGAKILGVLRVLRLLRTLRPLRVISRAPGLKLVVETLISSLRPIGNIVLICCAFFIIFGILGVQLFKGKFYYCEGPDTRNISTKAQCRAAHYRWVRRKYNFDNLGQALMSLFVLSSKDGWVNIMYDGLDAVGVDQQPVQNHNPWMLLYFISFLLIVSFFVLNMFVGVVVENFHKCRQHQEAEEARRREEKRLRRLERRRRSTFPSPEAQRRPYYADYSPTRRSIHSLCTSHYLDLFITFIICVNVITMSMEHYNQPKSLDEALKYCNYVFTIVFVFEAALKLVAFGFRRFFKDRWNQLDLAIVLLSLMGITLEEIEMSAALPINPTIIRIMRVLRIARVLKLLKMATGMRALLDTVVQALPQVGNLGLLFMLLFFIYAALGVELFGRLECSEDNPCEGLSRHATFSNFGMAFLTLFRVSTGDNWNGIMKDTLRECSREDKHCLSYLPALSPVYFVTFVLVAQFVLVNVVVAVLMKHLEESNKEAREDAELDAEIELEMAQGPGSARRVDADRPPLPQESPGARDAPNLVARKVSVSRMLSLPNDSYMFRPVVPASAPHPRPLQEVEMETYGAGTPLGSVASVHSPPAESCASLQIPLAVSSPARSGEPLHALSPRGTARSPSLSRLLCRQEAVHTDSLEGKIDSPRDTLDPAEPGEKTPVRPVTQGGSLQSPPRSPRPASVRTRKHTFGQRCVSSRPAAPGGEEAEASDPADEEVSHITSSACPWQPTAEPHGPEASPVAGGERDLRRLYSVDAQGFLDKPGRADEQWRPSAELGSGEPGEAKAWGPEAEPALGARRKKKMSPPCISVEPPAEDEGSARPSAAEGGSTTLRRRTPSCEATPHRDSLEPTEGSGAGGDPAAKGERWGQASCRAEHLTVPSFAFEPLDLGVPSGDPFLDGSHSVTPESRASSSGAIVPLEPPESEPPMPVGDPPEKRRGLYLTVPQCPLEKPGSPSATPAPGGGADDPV

Sequence of Voltage-dependent N-type calcium channel subunit alpha-1B (Q00975 whole entry): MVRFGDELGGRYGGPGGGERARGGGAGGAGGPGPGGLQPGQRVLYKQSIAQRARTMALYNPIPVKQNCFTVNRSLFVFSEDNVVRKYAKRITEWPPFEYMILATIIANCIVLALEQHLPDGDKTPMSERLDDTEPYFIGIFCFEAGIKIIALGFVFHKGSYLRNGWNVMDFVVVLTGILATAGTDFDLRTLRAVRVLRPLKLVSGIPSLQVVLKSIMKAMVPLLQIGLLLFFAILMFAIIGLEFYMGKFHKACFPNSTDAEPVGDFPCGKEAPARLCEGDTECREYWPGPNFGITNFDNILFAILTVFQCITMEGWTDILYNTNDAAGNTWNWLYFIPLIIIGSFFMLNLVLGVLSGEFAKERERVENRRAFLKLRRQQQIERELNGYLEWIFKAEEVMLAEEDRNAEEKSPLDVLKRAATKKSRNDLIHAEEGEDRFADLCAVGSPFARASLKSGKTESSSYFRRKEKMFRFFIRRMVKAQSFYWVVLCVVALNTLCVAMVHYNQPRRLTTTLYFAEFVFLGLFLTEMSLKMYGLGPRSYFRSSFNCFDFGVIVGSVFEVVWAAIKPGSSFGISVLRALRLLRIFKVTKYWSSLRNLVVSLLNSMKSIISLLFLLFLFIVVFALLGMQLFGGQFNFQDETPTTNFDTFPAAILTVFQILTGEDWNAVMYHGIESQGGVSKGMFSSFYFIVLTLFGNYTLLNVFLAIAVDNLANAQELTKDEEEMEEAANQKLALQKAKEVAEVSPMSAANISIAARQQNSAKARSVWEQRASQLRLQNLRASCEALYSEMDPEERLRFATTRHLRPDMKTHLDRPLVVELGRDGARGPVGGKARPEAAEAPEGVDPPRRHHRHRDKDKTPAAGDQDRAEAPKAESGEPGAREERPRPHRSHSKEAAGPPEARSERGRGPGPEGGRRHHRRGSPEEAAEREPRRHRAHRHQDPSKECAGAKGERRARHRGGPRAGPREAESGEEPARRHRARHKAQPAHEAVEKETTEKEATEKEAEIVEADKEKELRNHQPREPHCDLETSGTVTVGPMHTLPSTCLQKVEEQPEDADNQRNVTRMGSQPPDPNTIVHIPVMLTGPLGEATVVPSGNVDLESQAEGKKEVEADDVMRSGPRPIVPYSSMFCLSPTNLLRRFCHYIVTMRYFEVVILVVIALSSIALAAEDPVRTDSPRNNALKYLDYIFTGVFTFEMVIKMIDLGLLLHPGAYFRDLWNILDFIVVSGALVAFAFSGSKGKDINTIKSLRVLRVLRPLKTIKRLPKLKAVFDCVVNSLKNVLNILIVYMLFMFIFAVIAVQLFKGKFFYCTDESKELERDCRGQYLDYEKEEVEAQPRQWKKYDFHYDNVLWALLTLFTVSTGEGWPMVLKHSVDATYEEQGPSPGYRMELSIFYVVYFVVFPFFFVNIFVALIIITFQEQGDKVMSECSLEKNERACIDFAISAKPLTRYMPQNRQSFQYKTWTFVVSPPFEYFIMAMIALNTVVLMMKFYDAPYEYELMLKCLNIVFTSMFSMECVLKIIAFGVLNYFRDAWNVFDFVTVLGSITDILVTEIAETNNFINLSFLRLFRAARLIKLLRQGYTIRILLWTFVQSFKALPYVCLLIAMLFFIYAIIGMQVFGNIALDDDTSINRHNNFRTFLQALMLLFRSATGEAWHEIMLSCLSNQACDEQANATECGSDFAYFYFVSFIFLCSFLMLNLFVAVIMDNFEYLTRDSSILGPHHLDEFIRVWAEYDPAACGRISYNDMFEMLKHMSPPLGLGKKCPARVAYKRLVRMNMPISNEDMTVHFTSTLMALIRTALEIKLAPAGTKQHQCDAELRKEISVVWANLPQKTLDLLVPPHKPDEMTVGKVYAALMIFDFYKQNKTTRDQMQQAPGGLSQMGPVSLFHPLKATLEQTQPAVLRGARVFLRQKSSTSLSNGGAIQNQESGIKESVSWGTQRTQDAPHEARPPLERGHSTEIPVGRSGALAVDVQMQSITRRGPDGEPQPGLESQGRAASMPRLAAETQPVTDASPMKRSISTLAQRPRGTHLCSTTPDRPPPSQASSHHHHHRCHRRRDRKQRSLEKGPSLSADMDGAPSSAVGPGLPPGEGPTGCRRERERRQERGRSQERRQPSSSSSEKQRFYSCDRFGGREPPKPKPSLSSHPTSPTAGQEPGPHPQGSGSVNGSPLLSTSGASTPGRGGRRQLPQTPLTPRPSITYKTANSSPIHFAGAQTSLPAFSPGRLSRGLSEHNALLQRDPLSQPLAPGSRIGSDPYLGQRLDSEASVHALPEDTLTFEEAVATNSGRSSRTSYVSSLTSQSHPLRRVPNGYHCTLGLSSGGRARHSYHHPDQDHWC

Row | Compound | IC50 [1] [µM] | half-life at 150 µM (in vitro) [h] | CC50 at 20 h [2] [µM] | IC50 [3] [µM]
1 | CC(C)[C@H]1c2ccc(F)cc2CC[C@@]1(CCN(C)CCCc1nc2ccccc2[nH]1)OC(=O)C1CC1 | 24.3 | – | – | –
2 | CN(C)CCCOc1ccc(C(=O)Nc2ccccc2Oc2ccc(F)cc2)cc1 | – | ~1.5 | – | –
3 | CN(C)CCCOc1ccc(C(=O)Nc2ccccc2Oc2ccccc2)cc1 | – | – | > 100 | –
4 | FC(F)(F)c1ccc(Oc2ccccc2NCc2ccc(OCCCN3CCCC3)cc2)cc1 | 51 | – | – | 110
5 | FC(F)(F)c1ccc(Oc2ccc(NCc3ccc(OCCCN4CCCC4)cc3)cc2)cc1 | 50 | > 60 | – | 182
6 | Fc1ccc(Oc2ccc(NCc3ccc(OCCCN4CCCC4)cc3)cc2)cc1 | 48 | > 60 | – | 208
7 | c1ccc(Oc2cccc(NCc3ccc(OCCCN4CCCCC4)cc3)c2)cc1 | 63 | > 60 | – | 200
8 | N#Cc1ccc(Oc2ccc(NCc3ccc(OCCCN4CCCC4)cc3)cc2)cc1 | 28 | > 60 | – | 146
9 | c1ccc(Oc2cccc(NCc3ccc(OCCCn4ccnc4)cc3)c2)cc1 | 68 | > 60 | – | 258
10 | Fc1ccc(Oc2ccccc2NCc2ccc(OCCCn3ccnc3)cc2)cc1 | 33 | > 60 | – | 196
11 | CN(C)CCCOc1ccc(S(=O)(=O)Nc2cccc(Oc3ccccc3)c2)cc1 | 10 | > 60 | – | 142
12 | CNCCCOc1ccc(CNc2ccccc2Oc2ccc(C(F)(F)F)cc2)cc1 | 58 | > 60 | – | 204
13 | N#Cc1ccc(Oc2ccc(NCc3ccc(OCCCN4CCCCC4)cc3)cc2)cc1 | 19 | > 60 | – | 22
14 | Fc1ccc(Oc2cccc(NCc3ccc(OCCCN4CCCCC4)cc3)c2)cc1 | 20 | > 60 | – | 292
15 | c1ccc(Oc2ccc(NCc3ccc(OCCCN4CCCC4)cc3)cc2)cc1 | 36 | > 60 | – | 201
16 | N#Cc1ccc(Oc2ccc(NCc3ccc(OCCCn4ccnc4)cc3)cc2)cc1 | 75 | > 60 | – | 371
17 | CN(C)CCCOc1ccc(CNc2ccc(Oc3ccc(F)cc3)cc2)cc1 | 39 | > 60 | – | 227
18 | Fc1ccc(Oc2ccc(NCc3ccc(OCCCn4ccnc4)cc3)cc2)cc1 | 68 | > 60 | – | 337
